Test results published in paper PMC7617978, “Anti-trypanosomal quinazolines targeting lysyl-tRNA synthetases show partial efficacy in a mouse model of acute Chagas disease” (Science translational medicine, 2025).
Where “and” joins values, the source holds several entries; their conditions need not be identical. Equal values may be shown once. Read-outs that look alike come from different tables or passages of the source. Each block holds one compound with its values, some of them ahead of it.

Key:
[1] = test system: L. donovani (LdBOB) promastigote; assay: Drug sensitivity assay, L. donovani promastigotes; type: cell-based; conditions: promastigote; for EC50: read-out: EC50
[2] = test system: T. cruzi (Sylvio X10/7A1 strain) epimastigote; assay: microbe, parasite or virus in culture; type: cell-based; conditions: epimastigote; for EC50: read-out: EC50
[3] = test system: T. b. brucei BSF; assay: Drug sensitivity assay, T. b. brucei bloodstream forms; type: cell-based; conditions: BSF; for EC50: read-out: EC50
[4] = test system: T. cruzi CL Brener strain; assay: Bioluminescent mouse model of acute T. cruzi infection; type: in vivo, BALB/c mice; conditions: 100 mg/kg QD oral, 5 days, in words
Procedure: Female BALB/c mice (aged 6-7 weeks), purchased from Charles River (UK), were maintained under specific pathogen-free conditions in individually ventilated cages, with a 12 h light/dark cycle. They had access to food and water ad libitum. Mice were infected by intraperitoneal injection (i.p) of 1x10^3 bloodstream trypomastigotes derived from CB17 SCID mouse blood.
Compounds were prepared in 5% (v/v) dimethyl sulfoxide /95% HPMC suspension vehicle (0.5% (w/v) hydroxypropyl methylcellulose, 0.5% (v/v) benzyl alcohol, 0.4% (v/v) Tween 80 in Milli-Q water). Mice were treated as outlined in Fig. 5, with compounds administered by oral gavage. At different days after infection, mice were injected with d-luciferin (150 mg/kg) i.p., anaesthetized using 2.5% (v/v) gaseous isoflurane and imaged using an IVIS Spectrum (Revvity, Hopkinton, MA, USA) 5-10 min later. To estimate parasite burden, mice ventral and dorsal regions of interest were drawn using Living Image 4.7.3 to quantify bioluminescence expressed as total flux (photons/second; p/s). Regions of interest data from infected and not-infected mice were used as controls. Exposure times varied between 30 sec and 5 min, depending on the signal intensity.

[5] = target: Trypanosoma cruzi lysyl-tRNA synthetase 1 (TcKRS1), recombinant, residues 54-580 (Trypanosoma cruzi); assay: SEC; size exclusion chromatography as the last step of purification of recombinant TcKRS1 (tag cleaved); running buffer not stated

Compound: O=C(NCC1(O)CCC(F)(F)CC1)c1cc(=O)c2cc(F)ccc2o1 [DDD01510706, reference compound]
Fold-shift (relative to WT) ([1]; KRS1 OE): 11 fold
EC50 ([1]; KRS1 OE): 8 ± 0.5 µM
Fold-shift (relative to WT) ([1]; KRS1 S324L): 12 fold
EC50 ([1]; WT): 0.7 ± 0.01 µM
Fold-shift (relative to WT) ([2]; KRS1 OE): 9 fold
EC50 ([2]; KRS1 OE): 13 ± 0.4 µM
Fold-shift (relative to WT) ([2]; KRS1 S319L): 25 fold
EC50 ([2]; KRS1 S319L): 36 ± 4 µM
EC50 ([2]; WT): 1.4 ± 0.04 µM
Fold-shift (relative to WT) ([3]; KRS1 OE): 5 fold and ~ 5 fold
EC50 ([3]; KRS1 OE): 3 ± 0.1 µM
EC50 ([3]; KRS1 S323L): 33 ± 1 µM
Fold-shift (relative to WT) ([3]; KRS1 serine-to-leucine mutant (S323L; printed S319L in Table S1)): 53 fold
EC50 ([3]; WT): 0.6 ± 0.01 µM

Compound: O=C(Cn1ccnc1[N+](=O)[O-])NCc1ccccc1 [benznidazole, reference compound]
parasite burden after treatment [4]: reduced close to the limit of detection

stoichiometry N [5]: 2
Compound: Trypanosoma cruzi lysyl-tRNA synthetase 1 (TcKRS1), recombinant, residues 54-580 (enzyme)
